Reference: patent US20090098195A1 (priority 2004, published 2009)
Values joined by “and” are separate entries in the source; they are usually repeats but may differ in a detail not shown here. Equal values may be shown once. Read-outs that look alike come from different tables or passages of the source.

What was measured:
[1] = test system: influenza virus A/PR/8/34 (H1N1); assay type: cell-based; details: liposomes containing the peptide; egg PC concentration of 1 mM (peptide concentration: 0.15 mM); vs liposome without peptide
[2] = assay type: binding; details: GM3 monolayer, QCM
[3] = assay type: binding; details: 6′GM3 monolayer, QCM
[4] = assay type: binding; details: LacCer monolayer, QCM
[5] = assay type: binding; details: GalCer monolayer, QCM
[6] = assay type: binding; details: QCM; data not shown

**Q.** With “ARLSPTMVHPRGAQP [A1 peptide, reference compound]” as the substance, how does the “percent inhibition of infection” value [1] read?
**A.** 76%

**Q.** Which results are given for “GWWYKGRARPVSAVA [c01-peptide, H-GWWYKGRARPVSAVA-NH2]”?
**A.** Kd [2]: 1.8 µM; Δmmax (maximum binding amount) [2]: 46 ng cm^−2 and 46 ± 2.4 ng cm^−2; Kd [3]: 4 ± 1.1 µM; Δmmax (maximum binding amount) [3]: 93 ± 4.6 ng cm^−2; Kd [4]: 4.8 ± 1.6 µM; Δmmax (maximum binding amount) [4]: 74 ± 5.2 ng cm^−2; Kd [5]: 13 ± 3.3 µM; Δmmax (maximum binding amount) [5]: 64 ± 4.5 ng cm^−2; percent inhibition of infection [1]: 83%

**Q.** Which binding to glycosphingolipids [6] does the source give for H-AETVESCLAKPHTEN-NH2 [control peptide] here?
**A.** bound to none of the glycosphingolipids

**Q.** With “RAVWRHSVATPSHSV [c03-peptide, H-RAVWRHSVATPSHSV-NH2]” as the substance, how does the Kd [2] read?
**A.** 0.34 µM

**Q.** What about the “Δmmax (maximum binding amount)” value [2] of the same substance?
**A.** 11 ng cm^−2 and 11 ± 0.1 ng cm^−2

**Q.** And the Kd [3]?
**A.** 7 ± 2.2 µM

**Q.** And the “Δmmax (maximum binding amount)” value [3]?
**A.** 56 ± 3.1 ng cm^−2

**Q.** What about the Kd [4] of the same substance?
**A.** 5.9 ± 1.2 µM

**Q.** And the “Δmmax (maximum binding amount)” value [4]?
**A.** 37 ± 1.8 ng cm^−2

**Q.** What about the “Δmmax (maximum binding amount)” value [5] of the same substance?
**A.** <3 ng cm^−2

**Q.** And the “percent inhibition of infection” value [1]?
**A.** 94%
